In patent US6590123B2, “Aminobenzoic acid derivatives having anti-tumorigenic activity, methods of making and using the same” (Mount Sinai School of Medicine of New York University, priority 1998, dated 2003):
Where a name gives a salt, the structure may show the parent alone.

Experiments:
Purified tubulin = assay: Inhibition of microtubule assembly by spectrophotometry, cell free system; type: biochemical, calf; conditions: 23 μM
Protocol: (§1) Purified tubulin was purchased from Sigma (St. Louis, Mo.). The effects of compounds 6, 7, 8, 9, paclitaxel and vinblastine on the microtubule assembly-disassembly process were determined using conditions recommended by the vendor. For assembly inhibition, 100 μl tubulin solution (500-600 μg protein/ml) was mixed gently with 400 μl reaction buffer containing 0.1 M MES (2-[N-morpholino]ethane sulfonic acid), 1 mM EGTA ([…]-N,N,N′,N′-tetraacetic acid), 0.5 mM MgCl2, 0.1 mM EDTA and 2.5 M gycerol at 37° C. Compounds 6, 7, 8, and 9 were next added to each sample at final concentrations of 10, 10, 1 and 1 μg/ml, respectively. After adding GTP to each sample to a final concentration of 1 mM, the microtubule assembly process was monitored by measuring the change of absorbance (OD) at 350 nm on a spectrophotometer (Ultrospec III, Pharmacia LKB, Uppsala, Sweden). A completed assembly process was observed within 40 min at room temperature. For disassembly inhibition, compounds 6, 7, 8, and 9 were added, at the above concentrations, to covets with repolymerized microtubules as described above, and incubated in melting ice. Changes of absorbance (OD) were monitored at 350 nm for 30 min until the OD values in the controls returned to the starting level, i.e., when the assembly-disassembly cycle was completed.
Purified tubulin from calf brain was purchased from Sigma (St. Louis, Mo.). The effects of 3-BAABU (3-bromoacetoamido, benzoylurea) on the microtubule assembly-disassembly process were determined using the conditions recommended by the vendor. For assembly inhibition, 100 μl tubulin solution (500-600 μg protein/ml) was mixed gently with 400 μl reaction buffer containing 0.1 M MES, 1 mM EGTA, 0.5 mM MgCl2, 0.1 mM EDTA and 2.5 M glycerol at 37° C. 3-BAABU, paclitaxel or vinblastine were then added to each sample cuvet at final concentrations of 3.3, 23 or 22 μM, respectively. After adding GTP to each sample to a final concentration of 1 mM, the microtubule assembly process was monitored by measuring the change of absorbance (OD) every 5 min at 350 nm on a spectrophotometer (Ultrospec III, Pharmacia LKB, Uppsala, Sweden). A completed assembly process was observed within 40 min at room temperature. For disassembly inhibition, 3-BAABU (3.3 μM), paclitaxel (23 μM) or vinblastine (22 μM) was added to a cuvet with repolymerized microtubules according to the method described above, and incubated in melting ice. Changes of absorbance (OD) were monitored at 350 nm for 30 min until the OD values in the controls returned to the starting level, i.e., completion of the assembly-disassembly cycle. Solvent solutions were used as control and had no effect in either the assembly or disassembly process.

[1] = system: repolymerized microtubules; assay: Inhibition of microtubule disassembly by spectrophotometry, cell free system; type: biochemical, calf; conditions: 23 μM
Protocol: as §1, with “A completed assembly process was observed within 40 min at room temperature. For disassembly inhibition, compounds 6, 7, 8, and 9 were added, at the above concentrations, to covets with repolymerized microtubules as described above, and incubated in melting ice.” left out
Purified tubulin from calf brain was purchased from Sigma (St. Louis, Mo.). The effects of 3-BAABU (3-bromoacetoamido, benzoylurea) on the microtubule assembly-disassembly process were determined using the conditions recommended by the vendor. […]

[2] = system: P338 leukemia lymphoma cells; assay: Survival and ED50 in mice implanted i.p. with P338 lymphoma; type: in vivo, male C57 BL/6JX mice; conditions: for Survival IL % / Survival Mean ± SD: P338 Lymphoma (i.p.); for ED50: P338 leukemia lymphoma i.p. in mice, drug i.p. on days 2 and 8
Protocol: FIG. 9 is a plot graph of the survival rate of male C57 BL/6JX mice implanted (i.p.) with P338 lymphoma, from 10 to 40 days after implantation. Two groups were used for the study: a control group of ten and a test group of ten that were treated with 20 mg/kg, (i.p.) of compound 8 at 2 and 8 days post-implantation.
(§2) The in vivo efficacy of 3-BAABU and 3-IAABU of the present invention was asssessed in a murine model, along with known anti-tubule agents, vinblastine and paclitaxel, as a comparative standard. Approximately 10^6 P338 leukemia lymphoma cells/mouse were implanted intra-peritoneal (i.p.) into male C57 BL/6JX mice (Jackson Laboratories, N.Y.). On days 2 and 8 post-implantation, drugs were administrated i.p. at the following concentration ranges: 3-BAABU from 16.6 to 116 μmole/kg, 3-IAABU from 14.4 to 101 μmole/kg, vinblastine from 2.2 to 20 μmole/kg and paclitaxel from 28 to 57 μmole/kg.
(§3) Both control and treated animals were examined for ascitic tumor burden daily for 35 days. […] Therapeutic index was defined as the ratio of LD50 (lethal dose) to ED50 (effective dose).

[3] = LD50 (lethal dose) in mice; conditions: mice, i.p.
Text: as §2, §3

SMILES	activity on microtubular polymerization (Purified tubulin)	inhibition of microtubule depolymerization [1]	Survival IL % ([2]; 30 mg/kg ip on days 2 & 8)	Survival Mean ± SD ([2]; 30 mg/kg ip on days 2 & 8, control 18.6 ± 1.1)	ED50 [2]	LD50 [3]	Survival IL % ([2]; 2 mg/kg ip on days 2 & 8)	Survival Mean ± SD ([2]; 2 mg/kg ip on days 2 & 8, control 15.1 ± 2.3)
CC(=O)O[C@H]1C(=O)[C@@]2(C)[C@H]([C@H](OC(=O)c3ccccc3)[C@]3(O)C[C@H](OC(=O)[C@H](O)[C@@H](NC(=O)c4ccccc4)c4ccccc4)C(C)=C1C3(C)C)[C@]1(OC(C)=O)CO[C@@H]1C[C@@H]2O [Paclitaxel, reference compound]	no activity	significant inhibition	10%	20.4 ± 3.2	37 µmol/kg	45 µmol/kg	–	–
CC[C@]1(O)C[C@@H]2CN(CCc3c([nH]c4ccccc34)[C@@](C(=O)OC)(c3cc4c(cc3OC)N(C)[C@H]3[C@@](O)(C(=O)OC)[C@H](OC(C)=O)[C@]5(CC)C=CCN6CC[C@]43[C@@H]65)C2)C1 [Vinblastine, vinblastine sulfate]	–	–	–	–	4.5 µmol/kg	9.2 µmol/kg	21%	18.2 ± 6.3
